# From patent US20160221948A1, “NITROGEN-CONTAINING SATURATED HETEROCYCLIC COMPOUND” (SUMITOMO CHEMICAL COMPANY, LIMITED, priority 2013, published 2016)
# Biological target: human SSTR4 (Homo sapiens, UniProt P31391)
# Assay: Evaluation of agonist activities using human SSTR4-stably expressing cells (aequorin luminescence)
# Format: cell-based
# Set-up: expressed in transfected cells; host or cells: HEK293
# Conditions: for EC50: luminescence signal, 1 μmol/L somatostatin taken as 100%; for SSTR4 agonist activity compared with other compounds: Tables 25 to 27
# Method: Evaluation of Agonist Activities Using Cells that stably expressing human-derived SSTR4 (human SSTR4-stably expressing cells)
# (1) Human SSTR4-Stably Expressing Cells
# Human SSTR4-stably expressing cells were prepared, and cultured. Specifically, HEK293 cells, human kidney-derived cells, were used as host cells. By introducing pcDNA3.1 (cat. No. V79020, invitrogen, Carlsbad, Calif., USA) to which human SSTR gene was inserted into HEK293 cells, human SSTR4-stably expressing cell line was obtained. For selection, G418 (cat. No. 16513-84, Nacalai tesque, Japan) was used.
# As the culture medium, D-MEM medium (cat. No. 11995, GIBCO, USA), containing 10% FBS and 200 μg/mL G418, was used, the culture was performed in a 225 cm^2 flask (cat. No. 11-006-010, Iwaki, Japan).
# At about 80% confluence, the cells were harvested by treating with 20-fold diluted 0.25% Trypsin-EDTA (cat. No. 35554-64, Nacalai, tesque, Japan). The harvested cells were prepared at a reaction medium composed of Hanks Buffer (cat. No. 14065-056, invitrogen, Carlsbad, Calif., USA)/20 mM Hepes (cat. No. 15630-080, invitrogen, Carlsbad, Calif., USA), and 0.1% BSA (cat. No. A7906, Sigma Aldrich, USA) to 70000 cells/mL. Gα16 and apoaequorin were transiently introduced to the harvested cells, and the cells were seeded to a 384 well plate (cat. No. 781090, Greiner, Germany) at about 2000 cells/30 μL/well. On the next day of cell seeding, Coelenterazine H (cat. No. S2011, Promega, USA) was added to each well (10 μL/well) to make a final concentration of 0.5 μmol/L, and the plate was centrifuged. Then, the plate was left at room temperature for 4 hours in shaded state.
# (2) Preparation of Test Compounds
# DMSO solution of each test compound having 1000-fold larger concentration than the final concentration was prepared. The DMSO solutions were made to have 10-fold concentration than the final concentration with Hanks/20 mmol/L Hepes/0.1% BSA.
# (3) Evaluation of Agonist Activity
# For detection of luminescence signal due to SSTR4-stimulation, FDSS7000 (manufactured by Hamamatsu Photonics K.K.) was used. To plates having cells and the luminescence substrate, solutions of test compounds were added, then each luminescence signal was measured for 90 seconds, and each relative luminescence unit (RLU) was calculated. Based on luminescence signal from the wells to which a 1 μmol/L somatostatin solution was added taken as 100%, agonist activity of each test compound was evaluated.
# Chain of human SSTR4 (P31391 whole entry): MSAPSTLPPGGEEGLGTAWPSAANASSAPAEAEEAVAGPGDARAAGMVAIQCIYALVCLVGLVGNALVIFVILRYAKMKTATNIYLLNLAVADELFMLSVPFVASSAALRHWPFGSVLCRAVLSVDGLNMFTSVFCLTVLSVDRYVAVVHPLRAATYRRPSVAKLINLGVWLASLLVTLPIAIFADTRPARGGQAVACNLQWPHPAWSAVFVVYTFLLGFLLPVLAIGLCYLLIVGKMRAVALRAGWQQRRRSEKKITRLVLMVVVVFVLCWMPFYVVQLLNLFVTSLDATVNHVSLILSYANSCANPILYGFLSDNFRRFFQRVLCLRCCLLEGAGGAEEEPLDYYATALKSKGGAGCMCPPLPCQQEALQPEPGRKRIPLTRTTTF
SMILES,EC50,SSTR4 agonist activity compared with other compounds
"Cc1ccccc1C(C)(C)NC(=O)[C@H]1CCCN(C)C1 [Example 43, (3S)—N-[2-(2-methylphenyl)propane-2-yl]-1-methylpiperidine-3-carboxamide]",13 nM,
CN1CC[C@H](C(=O)NC(C)(C)c2ccccc2Cl)C1 [Example 79],43.5 nM,
CN1CCC[C@H](C(=O)NC(C)(C)c2cccc(Cl)c2F)C1 [Example 46],21.6 nM,
CC1CC(C(=O)NC(C)(C)c2cccc(Cl)c2Cl)CN(C)C1 (stereo not shown) [Example 100],27.9 nM,
CN1CCCC(C(=O)NC2(c3cccc4ccccc34)CC(F)(F)C2)C1 (stereo not shown) [Example 4],343 nM,
CN1CCCC(C(=O)NC(C)(C)c2cccc(Cl)c2Cl)C1c1ccccc1 (stereo not shown) [Example 98],> 100 nM,
CC(C)Cc1cc(Cl)ccc1C(C)(C)NC(=O)[C@H]1CCCN(C)C1 [Example 34],> 100 nM,
CN1CCC[C@H](C(=O)NC(C)(C)c2ccccc2)C1 [Example 39],> 100 nM,
CN1CC(C(=O)NC(C)(C)c2cccc3ccccc23)CC(F)(F)C1 (stereo not shown) [Example 94],28.8 nM,
"CN1CCCC(C(=O)NC2(c3cc(Cl)cc(Cl)c3)CCOCC2)C1 (stereo not shown) [Example 9, N-[4-(3,5-dichlorophenyl)tetrahydro-2H-pyran-4-yl]-1-methylpiperidine-3-carboxamide]",43.3 nM,
Cc1cc(Cl)ccc1C(C)(C)NC(=O)[C@H]1CCCN(C)C1 [Example 28],12.2 nM,
CCCCN1CCCC(C(=O)NC(C)(C)c2cccc3ccccc23)C1 (stereo not shown) [Example 118],55.2 nM,
COc1cccc(C(C)(C)NC(=O)[C@H]2CCCN(C)C2)c1 [Example 70],> 100 nM,
Cc1cccc(C(C)(C)NC(=O)[C@H]2CCCN(C)C2)c1 [Example 44],28.2 nM,
CN1CCC[C@H](C(=O)NC(C)(C)c2c(F)cccc2Cl)C1 [Example 74],20.9 nM,
COC[C@@H]1CC[C@H](C(=O)NC(C)(C)c2cccc3ccccc23)CN1C (relative stereo) [Example 105],> 100 nM,
CC(C)N1CCC[C@H](C(=O)NC(C)(C)c2ccccc2Cl)C1 [Example 121],11.7 nM,
COc1ccccc1C(C)(C)NC(=O)[C@@H]1CN(C)CC[C@H]1c1ccccc1 (relative stereo) [Example 108],2.2 nM,stronger SSTR4 agonist activity
CN1CCCC(C(=O)NC(C)(C)c2ccc(Cl)c(Cl)c2)C1 (stereo not shown) [Example 10],24.2 nM,
CN1CCC[C@H](C(=O)NC(C)(C)c2ccc(Cl)cc2-c2ccccc2)C1 [Example 36],> 100 nM,
"Cc1cc(Cl)ccc1C(C)(C)NC(=O)C1CCCN(C)C1 (stereo not shown) [Example 12, N-[2-(4-chloro-2-methylphenyl)propane-2-yl]-1-methylpiperidine-3-carboxamide]",9.7 nM,
CN1CCC(C(=O)NC(C)(C)c2ccccc2)C1 (stereo not shown) [Example 78],> 100 nM,
CCC1CCC(C(=O)NC(C)(C)c2cccc(Cl)c2Cl)CN1C (stereo not shown) [Example 102],61.8 nM,
COC1CC(C(=O)NC(C)(C)c2cccc(Cl)c2Cl)CN(C)C1 (stereo not shown) [Example 103],31.4 nM,

# More lines, in order of falling EC50, values ahead:
EC50,SSTR4 agonist activity compared with other compounds,SMILES
8.9 nM,,Cc1cccc(C(C)(C)NC(=O)C2CCCN(C)C2)c1C (stereo not shown) [Example 8]
8.8 nM,,COc1ccccc1C(C)(C)NC(=O)[C@H]1CCCN(C)C1 [Example 53]
8.4 nM,,Cc1cc(Cl)cc(C(C)(C)NC(=O)C2CCCN(C)C2)c1 (stereo not shown) [Example 11]
8.2 nM,,"COc1ccc(F)cc1C(C)(C)NC(=O)[C@H]1CCCN(C)C1 [Example 54, (3S)—N-[2-(5-fluoro-2-methoxylphenyl)propane-2-yl]-1-methylpiperidine-3-carboxamide]"
7.4 nM,,"Cc1cccc(C(C)(C)NC(=O)[C@H]2CCCN(C)C2)c1C [Example 23, (3S)—N-[2-(2,3-dimethylphenyl)propane-2-yl]-1-methylpiperidine-3-carboxamide]"
7.4 nM,,CN1CC(O)CC(C(=O)NC(C)(C)c2cccc3ccccc23)C1 (stereo not shown) [Example 83]
6.2 nM,,CSc1ccccc1C(C)(C)NC(=O)[C@H]1CCCN(C)C1 [Example 65]
5.3 nM,,"Cc1cc(Cl)cc(C(C)(C)NC(=O)[C@H]2CCCN(C)C2)c1 [Example 29, (3S)—N-[2-(3-chloro-5-methylphenyl)propane-2-yl]-1-methylpiperidine-3-carboxamide]"
5 nM,,"COc1ccc(Cl)cc1C(C)(C)NC(=O)[C@H]1CCCN(C)C1 [Example 51, (3S)—N-[2-(5-chloro-2-methoxylphenyl)propane-2-yl]-1-methylpiperidine-3-carboxamide]"
4 nM,,"CCc1ccc(C(C)(C)NC(=O)[C@H]2CCCN(C)C2)c(CC)c1 [Example 32, (3S)—N-[2-(2,4-diethylphenyl)propane-2-yl]-1-methylpiperidine-3-carboxamide]"
3.6 nM,,[2H]C([2H])([2H])N1CCC[C@H](C(=O)NC(C)(C)c2ccccc2Cl)C1 [Example 122]
3.4 nM,stronger SSTR4 agonist activity,C[C@@H]1CC[C@H](C(=O)NC(C)(C)c2cccc3ccccc23)CN1C (relative stereo) [Example 81]
3.3 nM,,"CN1CCC[C@H](C(=O)NC(C)(C)c2cccc(F)c2Cl)C1 [Example 71, (3S)—N-[2-(2-chloro-3-fluorophenyl)propane-2-yl]-1-methylpiperidine-3-carboxamide]"
3.3 nM,,"Cc1ccc(C(C)(C)NC(=O)[C@H]2CCCN(C)C2)c(C)c1 [Example 35, (3S)—N-[2-(2,4-dimethylphenyl)propane-2-yl]-1-methylpiperidine-3-carboxamide]"
3.2 nM,,CN1CC(F)CC(C(=O)NC(C)(C)c2cccc3ccccc23)C1 (stereo not shown) [Example 92]
3.1 nM,stronger SSTR4 agonist activity,CC[C@@H]1CC[C@H](C(=O)NC(C)(C)c2cccc3ccccc23)CN1C (relative stereo) [Example 90]
3 nM,,CN1CCC(C(=O)NC(C)(C)c2cccc3ccccc23)C1 (stereo not shown) [Example 77]
2.8 nM,,"CN1CCC[C@H](C(=O)NC(C)(C)c2ccc(F)cc2Cl)C1 [Example 72, (3S)—N-[2-(2-chloro-4-fluorohenyl)propane-2-yl]-1-methylpiperidine-3-carboxamide]"
1.8 nM,stronger SSTR4 agonist activity,"CN1CCC[C@H](C(=O)NC(C)(C)c2cccc(Cl)c2Cl)C1 [Example 19, (3S)—N-[2-(2,3-dichlorophenyl)propane-2-yl]-1-methylpiperidine-3-carboxamide]"
1.5 nM,,"CN1CCC[C@H](C(=O)NC(C)(C)c2ccccc2Br)C1 [Example 67, (3S)—N-[2-(2-bromophenyl)propane-2-yl]-1-methylpiperidine-3-carboxamide]"
1.5 nM,stronger SSTR4 agonist activity,C[C@@H]1[C@@H](C(=O)NC(C)(C)c2cccc3ccccc23)CCCN1C (relative stereo) [Example 85]
1.5 nM,stronger SSTR4 agonist activity,"COc1cc(Cl)ccc1C(C)(C)NC(=O)[C@H]1CCCN(C)C1 [Example 30, (3S)—N-[2-(4-chloro-2-methoxylphenyl)propane-2-yl]-1-methylpiperidine-3-carboxamide]"
1.4 nM,stronger SSTR4 agonist activity,"CCc1cc(Cl)ccc1C(C)(C)NC(=O)[C@H]1CCCN(C)C1 [Example 31, (3S)—N-[2-(4-chloro-2-ethylphenyl)propane-2-yl]-1-methylpiperidine-3-carboxamide]"
1.1 nM,,C[C@@H]1CC[C@@H](C(=O)NC(C)(C)c2cccc3ccccc23)CN1C (relative stereo) [Example 82]
